Earlier results in patent publication US9238073B2, “Pharmaceutical composition containing sympathomimetic amine salt and co-distillable additive” (Wyeth LLC, priority 2006, dated 2016).

Settings: (R)-methamphetamine from reduction of (-)-pseudoephedrine

Substance: (R)-methamphetamine
- psychoactivity relative to (S)-methamphetamine: one-tenth
